Laboratory results from patent publication US5840711A, “Compositions containing lithium inorganic salts and anti-viral drugs and method of treating viral infections such as acquired immunodeficiency syndrome” (priority 1997, dated 1998).
Entries after “also recorded” stand apart in the source; their conditions may differ. Read-outs that look alike come from different tables or passages of the source.

Assays:
[1] = tested on: LP-BM5 MuLV
From the text: Female C57BL6 mice (8-10 weeks of age) were purchased from Harlan, Indianapolis, Ind., USA. All animals were quarantined for a minimum of 1-week before experimental use. Animals were housed in plastic cages and fed Purina lab chow and water ad libitum.
LP-BM5 MuLV isolate used in these studies was originally derived from a bone marrow stromal cell line (SC-1) harvested from animals infected with mink cell MuLV (Morse et al., 1992) and is routinely maintained in the laboratory. LP-BM5 MuLV is a retrovirus mixture containing replication-competent helper B-trophic ecotropic mink cell focus forming (MCF) virus and an etiologic 4.9-kb replication defective genome termed EM5-def, susceptibility to which depends on the presence of the FV-1b genotype permissive for B-trophic virus replication (Morse et al., 1992). Therefore, the viral pool permissive for B-trophic virus replication (Morse et al., 1992) consisted of a mixture of B-tropic ecotropic and B-tropic mink cell focus-inducing murine immunodeficiency virus (MuLV). The titers of ecotropic and MCF MuLV were determined by XC plaque assay in SC-1 cells or by SC-1 UV-mink assay. […] To minimize exogenous infection, mice were maintained in microisolator cages and handled in accordance with the NIH Guide for the Care and Use of Laboratory Animals (NIH No. 85-23, 1985). Cages, bedding and food were autoclaved prior to use and all cages and animal handling or monitoring were performed in laminar air flow hoods. Ventilation and air flow in the animal facility was set to 12 changes/h. Room temperatures were regulated at 72°±2° F. and the rooms were on automatic 12-h light/dark cycles. One hundred and twenty mice were infected by i.p. injection of 0.25 ml of LP-BM5 MuLV virus-stock (10 μg of total protein) harvested from the SC-1 cell line following 3-day in vitro culture. The development of MAIDS induced by virus was monitored by physical findings (Morse et al., 1992). […] Increased systemic levels of IgM were used to monitor the development of LP-BM5 MuLV-induced disease.
In order to evaluate the ability of lithium to influence hematopoiesis in immunodeficient virus-infected animals, the following studies were performed. One hundred and twenty mice infected with LP-BM5 were divided into two groups, i.e., 60 virus-infected mice served as virus controls and the other group was administered lithium carbonate (Li2 CO3, ultra-pure; Alpha Therapeutics, Danville, Mass. USA) placed in the drinking water at a concentration of 1 mM as previously described from this laboratory (Gallicchio et al., 1993). Lithium treatment was initiated 7 days prior to virus infection. […] Lithium was initiated 7 days before virus infection and was continued for the duration of the study. Plasma lithium levels from animals bled by cardiac puncture on the days of examination were monitored by use of flame photometry (Model no. 943, IL Instruments, Lexington, Mass. USA). Virus-infected controls and virus-infected mice treated with lithium were serially sacrificed 1, 5, 9, 13, 17 and 21 weeks following virus inoculation for determination of lithium treatment on hematopoiesis following administration in LP-BMS5 MuLV infected animals.

[2] = tested on: Normal Mice
Procedure: C57BL6 were administered dose-escalation AZT (1.0 mg/ml and 2.5 mg/ml) for a period of 4-weeks. […] Animals were analyzed on a weekly basis for their peripheral blood indices.
C57BL6 female mice were purchased from Harlan, Indianapolis, Ind., USA used at 6-12 weeks of age, and housed 5 to a cage. […] Mice received Purina Autoclavable Chow and water ad libitum until initiation of the study. Thereafter, water containing lithium was supplied to the animals and daily water consumption was monitored.
In order to evaluate the ability of lithium to influence the hematopoietic toxicity associated with AZT in mice that had already been exposed to AZT, the following protocol was established. […] AZT and lithium were added to the animal drinking water Groups II, III, V and VI began their AZT all at the same time. Groups V and VI, at the beginning of week 5, received lithium that was added to their water supply. All treated groups then continued to receive AZT for an additional 4 weeks, equaling a total treatment-study period lasting 8-weeks in duration.
Animals were serially sacrificed, at least three to a group, on a weekly basis, for eight consecutive weeks. Animals were bled from the tail vein (600 μl) for assessment of peripheral blood indices; i.e., packed red cell volume, white blood cell, and platelet counts. In addition, at least one femur per animal was obtained and the bone marrow cellularity was calculated using standard laboratory procedures.
Mean±SE for values comparing control with experimental, utilizing duplicate studies were determined and analyzed using the two-sample ranks test of Wilcoxam-White (P<0.05) to determine significance.

[3] = tested on: herpes simplex virus; settings: in vitro, cited from earlier work
[4] = tested on: HIV-positive patient with severe Factor VIII deficiency; settings: cited from earlier work
[5] = tested on: LP-BM5 MuLV; settings: cited from earlier work
[6] = tested on: HIV-infected patients; settings: cited from earlier work
[7] = tested on: normal bone marrow cells; settings: in vitro with normal bone marrow cells (previous work; b10 also in vivo mice); cited from earlier work
[8] = tested on: BFU-E of Normal Bone Marrow
Procedure: (§1) The laboratory studies were performed in vitro to evaluate whether either drugs, i.e., with or without their lithium formulation when combined with either normal bone marrow cells or bone marrow cells taken from MAIDS animals would express: 1) differences in their toxicity profile when measured in culture and 2) differences comparing the responses using normal bone marrow cells versus bone marrow cells from MAIDS animals, in other words, comparing viral-infected cells with non-viral infected cells.
(§2) This table is interpreted as follows.

[9] = tested on: CFU-GM of Normal Bone Marrow
Procedure: as §1, §2

[10] = tested on: CFU-GM (Myeloid) of normal bone marrow cells; assay: AZT bone marrow toxicity in vitro, CFU-GM colony formation; format: cell-based
From the text: (§3) This is a standard practice.

[11] = tested on: CFU-Meg (Megakaryocyte) of normal bone marrow cells; assay: AZT bone marrow toxicity in vitro, CFU-Meg colony formation; format: cell-based
From the text: as §3

[12] = tested on: BFU-E (Erythroid) of normal bone marrow cells; assay: AZT bone marrow toxicity in vitro, BFU-E colony formation; format: cell-based
From the text: as §3

[13] = tested on: AIDS patients; settings: clinical use; listed as zidovudine (AZT); cited from earlier work
[14] = tested on: normal bone marrow cells; assay: AZT toxicity on normal bone marrow cells in vitro, overall; settings: normal bone marrow cells with AZT
Procedure: These studies were performed in vitro with normal bone marrow cells incubated in the presence of AZT and Li-GLA.

[15] = week 3, Lithium Control (1 mM), listed as lithium

O=C([O-])[O-].[Li+].[Li+] [Lithium, lithium carbonate]
Immune function status ([1]; murine model (MAIDS)): significantly improves immune function status | Hematopoiesis in MAIDS mice ([1]; versus animals not receiving lithium): significant hematopoiesis | Bone marrow BFU-E ([1]; versus viral controls): increased BFU-E that peaked on week 9 | Bone marrow CFU-GM ([1]; versus viral controls): increased CFU-GM compared to viral controls that peaked on week 9 | Bone marrow CFU-Meg ([1]; versus viral controls): increased, although not until week 17 of examination | Splenic BFU-E ([1]; versus viral controls): increased at all time points examined | Splenic CFU-GM ([1]; versus viral controls): significantly increased at all time points compared to viral controls | Splenic CFU-Meg ([1]; versus viral controls): increased significantly | Absolute neutrophils ([1]; versus virus control group, FIG. 2a): increased | Absolute lymphocytes ([1]; versus virus control group, FIG. 2b): increased | Effect on packed red cell volume (hematocrit) ([1]; versus virus-control group, FIG. 1a): decreased the reduction | Effect on white blood cell count ([1]; versus virus-control group, FIG. 1b): decreased the reduction | Effect on platelets ([1]; versus virus-control group, FIG. 1c): decreased the reduction | Signs of lithium toxicity, i.e., tremor ([1]; virus-infected mice receiving lithium): no demonstrable signs of lithium toxicity | Reduction in eosinophils ([2]; AZT with lithium treatment): prevented this reduction in eosinophils observed with AZT | Thrombocytopenia ([2]; following lithium, each week examined, both AZT groups): no thrombocytopenia | Eosinophils ([2]; week 1, Lithium Control (1 mM)): 100 Percent Control | Hematocrit ([2]; week 1, Lithium Control (1 mM)): 98 Percent Control | Neutrophils ([2]; week 1, Lithium Control (1 mM)): 100 Percent Control | Platelets ([2]; week 1, Lithium Control (1 mM)): 100 Percent Control | Eosinophils ([2]; week 2, Lithium Control (1 mM)): 100 Percent Control | Hematocrit ([2]; week 2, Lithium Control (1 mM)): 82 Percent Control | Neutrophils ([2]; week 2, Lithium Control (1 mM)): 54 Percent Control | Platelets ([2]; week 2, Lithium Control (1 mM)): 93 Percent Control | Eosinophils ([2]; week 3, Lithium Control (1 mM)): 100 Percent Control | Hematocrit ([2]; week 3, Lithium Control (1 mM)): 101 Percent Control | Neutrophils ([2]; week 3, Lithium Control (1 mM)): 65 Percent Control | Platelets ([2]; week 3, Lithium Control (1 mM)): 93 Percent Control | Neutrophils [2, 15]: 120 Percent Control | Platelets [2, 15]: 116 Percent Control | Eosinophils ([2]; week 4, Lithium Control (1 mM)): 100 Percent Control | Hematocrit ([2]; week 4, Lithium Control (1 mM)): 100 Percent Control | Neutrophils ([2]; week 4, Lithium Control (1 mM)): 61 Percent Control | Platelets ([2]; week 4, Lithium Control (1 mM)): 74 Percent Control | Eosinophils ([2]; week 5, Lithium Control (1 mM)): 100 Percent Control | Hematocrit ([2]; week 5, Lithium Control (1 mM)): 98 Percent Control | Neutrophils ([2]; week 5, Lithium Control (1 mM)): 54 Percent Control | Platelets ([2]; week 5, Lithium Control (1 mM)): 69 Percent Control | Eosinophils ([2]; week 6, Lithium Control (1 mM)): 146 Percent Control | Hematocrit ([2]; week 6, Lithium Control (1 mM)): 94 Percent Control | Neutrophils ([2]; week 6, Lithium Control (1 mM)): 98 Percent Control | Platelets ([2]; week 6, Lithium Control (1 mM)): 69 Percent Control | Eosinophils ([2]; week 7, Lithium Control (1 mM)): 100 Percent Control | Hematocrit ([2]; week 7, Lithium Control (1 mM)): 98 Percent Control | Neutrophils ([2]; week 7, Lithium Control (1 mM)): 120 Percent Control | Platelets ([2]; week 7, Lithium Control (1 mM)): 116 Percent Control | Eosinophils ([2]; week 8 (+ lithium from week 5 in combination group), AZT 1.0 mg/ml): 110 Percent Control | Eosinophils ([2]; week 8 (+ lithium from week 5 in combination group), AZT 2.5 mg/ml (AZT column headed 2 mg/ml)): 164 Percent Control | Hematocrit toxicity ([2]; week 8, lithium versus AZT controls): the same level of toxicity as the AZT controls | Eosinophils ([2]; week 8, Lithium Control (1 mM)): 107 Percent Control | Hematocrit ([2]; week 8, Lithium Control (1 mM)): 88 Percent Control | Neutrophils ([2]; week 8, Lithium Control (1 mM)): 90 Percent Control | Platelets ([2]; week 8, Lithium Control (1 mM)): 79 Percent Control | DNA polymerase activity ([3]; HSV): inhibition of DNA polymerase activity | Absolute neutrophil and platelet counts ([4]; within 3 days, 300 mg t.i.d. with methylprednisolone): a remarkable rise | Splenomegaly and hypergammaglobulinemia (IgM) ([5]; LP-BM5 MuLV animals (Gallicchio et al., 1994)): reduction in the splenomegaly and hypergammaglobulinemia | Toxicity following dose-escalation of AZT ([5]; MAIDS model in vivo (Gallicchio et al., 1995)): reduced the immunochematopoietic toxicity | Hematopoietic progenitor cells from bone marrow or spleen ([5]; in vivo, with zidovudine (literature)): effectively increased the number of hematopoietic progenitor cells | Patients responding with neutrophilia ([6]; 5 AIDS patients (report)): 3 of 5 patients | Patients responding with neutrophilia ([6]; AIDS patients (Worthington 1990)): one of three | Patients tolerating higher doses of AZT (up to 1,000 mg) [6]: 3 of the 5 patients | Patients with significant hematopoiesis [6]: Three of the five patients | Patients responding with neutrophilia ([6]; lithium at least 4 weeks, no AZT (Parenti et al., 1988)): 6 of 7 | Lithium toxicity ([6]; no AZT (Parenti et al., 1988)): further lithium usage was limited due to the presence of lithium toxicity | Patients demonstrating significant hematopoiesis ([6]; with zidovudine (Herbert et al., 1988)): Three of the 5 | Myelosuppression and marrow toxicity of AZT [7]: reduced the myelosuppression and marrow toxicity of AZT significantly

2,3'-Dideoxycytosine [ddC]
CC50 [8]: 0.6 µM | CC50 [9]: 10 µM

Cc1cn([C@H]2C[C@H](N=[N+]=[N-])[C@@H](CO)O2)c(=O)[nH]c1=O [AZT, 3'-azido-3'-deoxythymidine]
CFU-GM (Myeloid) colonies ([10]; AZT 0.01 μM): 53.5 ± 3 | CFU-GM (Myeloid) colonies ([10]; AZT 0.1 μM): 39.5 ± 3 | CFU-GM (Myeloid) colonies ([10]; AZT 1.0 μM): 28.5 ± 4 | CFU-GM (Myeloid) colonies ([10]; AZT 10.0 μM): 14.5 ± 3 | CFU-Meg (Megakaryocyte) colonies ([11]; AZT 0.01 μM): 16.0 ± 3 | CFU-Meg (Megakaryocyte) colonies ([11]; AZT 0.1 μM): 10.5 ± 3 | CFU-Meg (Megakaryocyte) colonies ([11]; AZT 1.0 μM): 6.5 ± 3 | CFU-Meg (Megakaryocyte) colonies ([11]; AZT 10.0 μM): 2.5 ± 2 | BFU-E (Erythroid) colonies ([12]; AZT 0.01 μM): 43.5 ± 5 | BFU-E (Erythroid) colonies ([12]; AZT 0.1 μM): 37.5 ± 3 | BFU-E (Erythroid) colonies ([12]; AZT 1.0 μM): 21.5 ± 5 | BFU-E (Erythroid) colonies ([12]; AZT 10.0 μM): 14.5 ± 2 | Lymphocytes and monocytes ([2]; mouse, in vivo): Lower, but less significant, levels | Toxicity leading to discontinuation ([4]; after 6 months): thrombocytopenia, neutropenia, and anemia | Toxicity of AZT [13]: myelosuppression and bone marrow toxicity; also recorded: the development of virus resistance and bone marrow suppression | Tolerated AZT dose with lithium [6]: up to 1,000 mg | Tolerated zidovudine dose with lithium ([6]; without observable signs of toxicity (Herbert et al., 1988)): up to 1000 mg/day

[Cl-].[Li+] [lithium chloride]
Concentration inhibiting herpes simplex virus replication [3]: 5 to 30 mM | Myelosuppression and marrow toxicity of AZT [7]: reduced the myelosuppression and marrow toxicity of AZT significantly | Effect on AZT toxicity / colony formation [14]: there is a reduction in AZT toxicity; however, the values never reach the level of the normal control; also recorded: reduced AZT toxicity but was not effective in increasing cell growth and colony formation

2',2'-Dideoxyinosine [ddI]
CC50 [8]: 1 µM | CC50 [9]: 100 µM
